{"source": "patent US11578078B2", "about": "“Heterocyclic RIP1 inhibitory compounds” (Rigel Pharmaceuticals, Inc., priority 2019, dated 2023)", "assay": "in vivo pharmacokinetics, plasma and brain exposure", "set-up": "species or system rodents", "data": [{"smiles": "CN1C(=O)[C@@H](NC(=O)n2cc(Cc3ccc(F)cc3)cn2)COc2ccc(N3CC4(CCOCC4)C3)cc21", "note": "[Compound I-3, (S)-4-(4-fluorobenzyl)-N-(5-methyl-4-oxo-7-(7-oxa-2-azaspiro[3.5]nonan-2-yl)-2,3,4,5-tetrahydrobenzo[b][1,4]oxazepin-3-yl)-1H-pyrazole-1-carboxamide]", "values": [{"measurement": "Ratio (Brain/Plasma)", "setting": "brain AUC0-6 / plasma AUC0-6", "value": 0.93}, {"measurement": "PLASMA CI", "value": 19.0}]}, {"smiles": "CN1C(=O)[C@@H](NC(=O)c2nn(Cc3ccccc3)cc2F)COc2ccc(N3CCC4(CCOCC4)C3)cc21", "note": "[Compound I-1, (S)-1-benzyl-4-fluoro-N-(5-methyl-4-oxo-7-(8-oxa-2-azaspiro[4.5]decan-2-yl)-2,3,4,5-tetrahydrobenzo[b][1,4]oxazepin-3-yl)-1H-pyrazole-3-carboxamide]", "values": [{"measurement": "Ratio (Brain/Plasma)", "setting": "brain AUC0-6 / plasma AUC0-6", "value": 0.46}, {"measurement": "PLASMA CI", "value": 16.4}]}, {"smiles": "CN1C(=O)[C@@H](NC(=O)c2nn(Cc3ccccc3)cc2F)COc2ccc(N3CC4(CCOCC4)C3)cc21", "note": "[Compound I-2, (S)-1-benzyl-4-fluoro-N-(5-methyl-4-oxo-7-(7-oxa-2-azaspiro[3.5]nonan-2-yl)-2,3,4,5-tetrahydrobenzo[b][1,4]oxazepin-3-yl)-1H-pyrazole-3-carboxamide]", "values": [{"measurement": "BRAIN AUC0-6", "setting": "brain", "value": 157}, {"measurement": "PLASMA CI", "value": 57.7}, {"measurement": "Kp", "setting": "rodents, brain AUC0-6 / plasma AUC0-6, read-out: Ratio (Brain/Plasma)", "value": 0.56}]}]}
